In ChEMBL document CHEMBL1165903, “Design and synthesis of 1,4-dihydropyridine derivatives as BACE-1 inhibitors” (Eur J Med Chem, 2010):

target: T1, Beta-secretase 1 (Homo sapiens, UniProt P56817); test: Inhibition of BACE1 in human HEK293 cells transfected with pCDNA-neo-SEAP-APP assessed as secreted alkaline phosphatase after cleavage of beta-site of APP by fluorescence assay; type: cell-based
T1 sequence (P56817 whole entry): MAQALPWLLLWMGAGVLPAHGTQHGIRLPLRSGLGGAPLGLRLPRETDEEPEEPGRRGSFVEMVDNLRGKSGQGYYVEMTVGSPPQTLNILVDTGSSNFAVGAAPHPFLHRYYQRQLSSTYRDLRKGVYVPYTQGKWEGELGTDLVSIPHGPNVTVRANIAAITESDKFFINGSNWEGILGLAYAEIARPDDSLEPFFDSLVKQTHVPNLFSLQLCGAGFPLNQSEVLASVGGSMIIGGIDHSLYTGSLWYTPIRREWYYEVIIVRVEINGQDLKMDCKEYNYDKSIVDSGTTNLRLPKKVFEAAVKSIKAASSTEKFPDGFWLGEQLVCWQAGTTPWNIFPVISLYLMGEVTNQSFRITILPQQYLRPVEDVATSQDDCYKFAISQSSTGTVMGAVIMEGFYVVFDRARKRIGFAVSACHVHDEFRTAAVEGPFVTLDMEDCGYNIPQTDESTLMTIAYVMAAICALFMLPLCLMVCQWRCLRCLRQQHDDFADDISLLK

IC50 [µM]	SMILES
16.1	CC1=C(C(=O)N[C@@H](Cc2ccccc2)[C@H](O)CNC2CC2)C(C)C(C(=O)N[C@H](C)c2ccccc2)=C(C)N1S(C)(=O)=O (stereo not given in full)
14.9	CC1=C(C(=O)NOCc2ccccc2)C(C)C(C(=O)N[C@@H](Cc2ccccc2)[C@H](O)CNC2CC2)=C(C)N1S(C)(=O)=O (stereo not given in full)
8.1	CCCC1C(C(=O)NOCc2ccccc2)=C(C)N(S(C)(=O)=O)C(C)=C1C(=O)N[C@@H](Cc1ccccc1)[C@H](O)CNC1CC1 (stereo not given in full)
21.4	CC1=C(C(=O)NOCc2ccccc2)C(c2ccccc2)C(C(=O)N[C@@H](Cc2ccccc2)[C@H](O)CNC2CC2)=C(C)N1S(C)(=O)=O (stereo not given in full)
15.2	COC(=O)CN1C(C)=C(C(=O)NOCc2ccccc2)C(C)C(C(=O)N[C@@H](Cc2ccccc2)[C@H](O)CNC2CC2)=C1C (stereo not given in full)
27.1	CCCC1C(C(C)=O)=C(C)N(CC(=O)OC(C)C)C(C)=C1C(=O)N[C@@H](Cc1ccccc1)[C@H](O)CNc1cccc(F)c1 (stereo not given in full)
26.1	COc1cccc(CNC[C@@H](O)[C@H](Cc2ccccc2)NC(=O)C2=CN(CC(=O)OC(C)C)C(C)=C(C(C)=O)C2C)c1 (stereo not given in full)
26.6	CCCC1C(C(C)=O)=C(C)N(CC(=O)OC(C)C)C(C)=C1C(=O)N[C@@H](Cc1ccccc1)[C@H](O)CNc1cccc(OC)c1 (stereo not given in full)
39.1	CC1=C(C(=O)N[C@@H](Cc2ccccc2)[C@H](O)CNC2CC2)C(C)C(C(=O)OCc2ccccc2)=C(C)N1CC(=O)N(C)C (stereo not given in full)
28.2	CC1=C(C(=O)N[C@@H](Cc2ccccc2)[C@H](O)CNC2CC2)C(C)C(C(=O)OCc2ccccc2)=C(C)N1CC(=O)N(C)C(C)C (stereo not given in full)
30.4	CCCC1C(C(=O)N[C@@H](Cc2ccccc2)[C@H](O)CNc2cccc(OC)c2)=CN(CC(=O)OC(C)C)C=C1C(=O)OC(C)(C)C (stereo not given in full)
29.6	CCCC1C(C(=O)N[C@@H](Cc2ccccc2)[C@H](O)CNC2CC2)=CN(CC(=O)OC(C)C)C=C1C(=O)N[C@H](C)c1ccccc1 (stereo not given in full)
31.2	CCCC1C(C(=O)N[C@@H](Cc2ccccc2)[C@H](O)CNc2cccc(OC)c2)=CN(CC(=O)OC(C)C)C=C1C(=O)N[C@H](C)c1ccccc1 (stereo not given in full)
26.4	CC(=O)C1=C(C)N(CC(=O)OC(C)C)C(C)=C(C(=O)N[C@@H](Cc2ccccc2)[C@H](O)CNc2cccc(F)c2)C1C (stereo not given in full)
33.1	CCCC1C(C(C)=O)=C(C)N(CC(=O)OC(C)C)C(C)=C1C(=O)N[C@@H](Cc1ccccc1)[C@H](O)CNC1CC1 (stereo not given in full)
29.3	CC(=O)C1=C(C)N(CC(=O)OC(C)C)C(C)=C(C(=O)N[C@@H](Cc2ccccc2)[C@H](O)CNC2CC2)C1C (stereo not given in full)
31.9	CC(C)OC(=O)CN1C=C(C(=O)N[C@@H](Cc2ccccc2)[C@H](O)CNC2CC2)C(C)C(C(=O)OC(C)(C)C)=C1 (stereo not given in full)
24.6	CCCC1C(C(=O)N[C@@H](Cc2ccccc2)[C@H](O)CNC2CC2)=CN(CC(=O)OC(C)C)C=C1C(=O)OC(C)(C)C (stereo not given in full)
16.2	CCC1C(C(=O)N[C@@H](Cc2ccccc2)[C@H](O)CNC2CC2)=C(C)N(S(C)(=O)=O)C(C)=C1C(=O)N[C@H](C)c1ccccc1 (stereo not given in full)
9.5	CCC1C(C(=O)NOCc2ccccc2)=C(C)N(S(C)(=O)=O)C(C)=C1C(=O)N[C@@H](Cc1ccccc1)[C@H](O)CNC1CC1 (stereo not given in full)
11	CC1=C(C(=O)NOCc2ccccc2)C(C(C)C)C(C(=O)N[C@@H](Cc2ccccc2)[C@H](O)CNC2CC2)=C(C)N1S(C)(=O)=O (stereo not given in full)
9	CC1=C(C(=O)NOCc2ccccc2)C(C)C(C(=O)N[C@@H](Cc2ccccc2)[C@H](O)CNC2CC2)=C(C)N1CC(=O)OC(C)C (stereo not given in full)
15.5	CCOC(=O)CN1C(C)=C(C(=O)NOCc2ccccc2)C(C)C(C(=O)N[C@@H](Cc2ccccc2)[C@H](O)CNC2CC2)=C1C (stereo not given in full)
23.2	CCCC1C(C(C)=O)=C(C)N(CC(=O)OC(C)C)C(C)=C1C(=O)N[C@@H](Cc1ccccc1)[C@H](O)CNCc1cccc(OC)c1 (stereo not given in full)
26.9	CC(=O)OCCCN1C(C)=C(C(=O)N[C@@H](Cc2ccccc2)[C@H](O)CNC2CC2)C(C)C(C(=O)OCc2ccccc2)=C1C (stereo not given in full)
28.4	CC1=C(C(=O)N[C@@H](Cc2ccccc2)[C@H](O)CNC2CC2)C(C)C(C(=O)OCc2ccccc2)=C(C)N1CC(=O)N1CCOCC1 (stereo not given in full)
16.1	CC1=C(C(=O)OCc2ccccc2)C(C)C(C(=O)N[C@@H](Cc2ccccc2)[C@H](O)CNC2CC2)=CN1CC(=O)OC(C)C (stereo not given in full)
32.8	CC(C)OC(=O)CN1C=C(C(=O)N[C@@H](Cc2ccccc2)[C@H](O)CNC2CC2)C(C)C(C(=O)N[C@H](C)c2ccccc2)=C1 (stereo not given in full)
29.3	CC(=O)C1=C(C)N(CC(=O)OC(C)C)C=C(C(=O)N[C@@H](Cc2ccccc2)[C@H](O)CNc2cccc(F)c2)C1C (stereo not given in full)

target: T1, Beta-secretase 1; test: Inhibition of BACE1

IC50 [µM]	SMILES
0.005	CCNc1cc(C(=O)N[C@@H](Cc2ccccc2)[C@H](O)CNc2cccc(C(F)(F)F)c2)cc(N2CCCCS2(=O)=O)c1
